Data set [1] can be described thus: Immunosupressive activity in OVA323-339 peptide-stimulated OT-2 T cell receptor transgenic mouse splenocytes assessed as inhibition of T cell proliferation after 3 days by MTT assay. As to conditions: Splenocyte, 72 h. The format is functional, cell-based. For orientation: Tetrazolium dyes change colour on reduction, which living cells bring about.
The nature of data set [2]: Cytotoxicity against OT-2 T cell receptor transgenic mouse splenocytes using propidium iodide by flow cytometry. The format is cell-based. As to conditions: splenocyte. In general terms: Flow cytometry measures light scatter and fluorescence of single cells or particles in a stream.
Data set [3] in a line: Effect on IFN-gamma secretion in OVA323-339 peptide-stimulated OT-2 T cell receptor transgenic mouse T cells after 3 days by sandwich ELISA. The data set is classed as cell-based. As to conditions: splenocyte, 72 h. In general terms: An ELISA detects its analyte on a solid surface through an enzyme-linked reagent.
Data set [4] in a line: Effect on IL-2 secretion in OVA323-339 peptide-stimulated OT-2 T cell receptor transgenic mouse T cells after 3 days by sandwich ELISA. The data set is classed as cell-based. As to conditions: splenocyte, 72 h.

As to `CC(C)CC(=O)O[C@@H]1CC[C@]2(C)[C@H]3CC[C@]45C[C@]4(CC[C@H]5[C@@H]4C[C@H]([C@@H]5O[C@]5(C)CO)OC4O)[C@]3(C)[C@H](O)C[C@H]2C1(C)C` (stereo partly specified), the IC50 (as a rule, the point on the concentration scale where inhibition reaches its midpoint) in data set [1] stood at 1500 nM. The Activity result in data set [2], in data set [3] and in data set [4] was “Non-toxic” each time.
For the molecule `CC(C)CC(=O)O[C@@H]1CC[C@]2(C)[C@H]3CC[C@]45C[C@]4(CC[C@H]5[C@@H]4C[C@H]([C@H](O)C(C)(C)O)OC4O)[C@]3(C)[C@H](O)C[C@H]2C1(C)C` (stereo partly specified), the IC50 in data set [1] was > 20000 nM. Moreover, the Activity result in data set [2], in data set [3] and in data set [4] was “Non-toxic” each time.
With `CCCCCCCCCC(=O)O[C@@H]1CC[C@]2(C)[C@H]3CC[C@]45C[C@]4(CC[C@H]5[C@@H]4C[C@H]([C@@H]5O[C@]5(C)CO)OC4O)[C@]3(C)[C@H](O)C[C@H]2C1(C)C` (stereo partly specified), the IC50 in data set [1] was 1800 nM. The Activity entry in data set [2], in data set [3] and in data set [4] was “Non-toxic” throughout.
`CCC(C)CCCCCCC(=O)O[C@@H]1CC[C@]2(C)[C@H]3CC[C@]45C[C@]4(CC[C@H]5[C@@H]4C[C@H]([C@@H]5O[C@]5(C)CO)OC4O)[C@]3(C)[C@H](O)C[C@H]2C1(C)C` (stereo partly specified): the concentration for half-maximal inhibition (IC50) in data set [1] came out at 1500 nM. Further, the Activity result in data set [2], in data set [3] and in data set [4] was “Non-toxic” throughout.

The record behind these values is ChEMBL document CHEMBL3352480, “Antiproliferative glabretal-type triterpenoids from the root bark of Dictamnus dasycarpus” (Bioorg Med Chem Lett, 2015).
